In patent US9000022B2 (Exelixis Patent Company LLC, priority 2005, dated 2015):

Test system: LXRα and/or LXRβ
Experiment: Co-transfection assay (LXRE luciferase reporter, CV-1 cells)
Type: cell-based, human
Details: for IC50 or EC50 (potency, activation or inhibition): tested as described in Example 33, IC50 or EC50 for LXRα and/or LXRβ, isoform not specified, read-out: activity (IC50 or EC50 for LXR); for EC50: read-out: activity (IC50 or EC50 for LXR), tested as described in Example 33, isoform not specified
Method in brief: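 CV-1 cells transiently co-transfected with full-length human LXRα or LXRβ plus RXRα, an LXRE×1-Tk-luciferase reporter and a β-galactosidase control. Compounds incubated 20 h at 37 °C (≤1% DMSO; screen at 10 μM final); luciferase read after lysis. EC50/IC50 from 8-point half-log curves (4 wells per point, ≥3 experiments); efficacy relative to a reference agonist high control and DMSO.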

| Compound | IC50 or EC50 (potency, activation or inhibition) [nM] | EC50 [nM] |
| --- | --- | --- |
| FC(F)(F)c1cn(-c2ccc(Br)cc2)c(-c2ccccc2C(F)(F)F)n1 [Example 363, 1-(4-bromophenyl)-4-(trifluoromethyl)-2-[2-(trifluoromethyl)phenyl]-1H-imidazole] | 1000 to 10000 | – |
| Cc1cc(-c2cccc(S(C)(=O)=O)c2)ccc1-n1cc(C(=S)NCC(F)(F)F)nc1-c1ccccc1C(C)C [Example 75, 2-(2-isopropylphenyl)-1-(3-methyl-3′-(methylsulfonyl)biphenyl-4-yl)-N-(2,2,2-trifluoroethyl)-1H-imidazole-4-carbothioamide] | < 1000 | – |
| CC(C)c1ccccc1-c1nc(C(C)(C)O)cn1-c1ccc(-c2cccc(S(C)(=O)=O)c2)cc1 [Example 94, 2-(2-(2-isopropylphenyl)-1-(3′-(methylsulfonyl)biphenyl-4-yl)-1H-imidazol-4-yl)propan-2-ol] | < 1000 | – |
| CC(C)(O)c1cn(-c2ccc(-c3ccc(CO)c(S(C)(=O)=O)c3)cc2Cl)c(-c2cccc3ccccc23)n1 [Example 32, 2-(1-(3-chloro-4′-(hydroxy-methyl)-3-(methylsulfonyl)biphenyl-4-yl)-2-(naphthalen-1-yl)-1H-imidazol-4-yl)propan-2-ol] | < 1000 | – |
| CCS(=O)(=O)c1cccc(-c2ccc(-n3cc(C(C)(C)O)nc3-c3ccccc3C(F)(F)F)c(C)c2)c1 [Example 184, 2-(1-(3′-(ethylsulfonyl)-3-methyl-biphenyl-4-yl)-2-(2-(trifluoro-methyl)phenyl)-1H-imidazol-4-yl)propan-2-ol] | < 1000 | – |
| Cc1cccc(Cl)c1-c1nc(C(C)(C)O)cn1-c1ccc(-c2ccc(CO)c(S(C)(=O)=O)c2)cc1F [Example 133, 2-(2-(2-chloro-6-methylphenyl)-1-(3-fluoro-4′-(hydroxymethyl)-3′-(methylsulfonyl)biphenyl-4-yl)-1H-imidazol-4-yl)propan-2-ol] | < 1000 | – |
| COc1ccc(-c2ccc(-n3cc(C(C)(C)O)nc3-c3c(F)cccc3Cl)c(Cl)c2)cc1S(C)(=O)=O [Example 454, 2-(1-(3-chloro-4′-methoxy-3′-(methylsulfonyl)biphenyl-4-yl)-2-(2-chloro-6-fluorophenyl)-1H-imidazol-4-yl)propan-2-ol] | 1000 to 10000 | – |
| CCS(=O)(=O)c1cccc(-c2ccc(-n3cc(C(C)(C)O)nc3-c3c(F)cccc3F)cc2)c1 [Example 419, 2-{2-(2,6-difluorophenyl)-1-[3′-(ethylsulfonyl)biphenyl-4-yl]-1H-imidazol-4-yl}propan-2-ol] | 1000 to 10000 | – |
| CC(C)S(=O)(=O)c1cccc(-c2ccc(-n3cc(C(F)(F)F)nc3-c3ccccc3C(F)(F)F)cc2)c1 [Example 373, 1-{3′-[(1-methylethyl)sulfonyl]biphenyl-4-yl}-4-(trifluoromethyl)-2-[2-(trifluoromethyl)phenyl]-1H-imidazole] | < 1000 | – |
| CC(C)(O)c1cn(-c2ccc(-c3ccc(CO)c(S(C)(=O)=O)c3)cc2)c(-c2c(Cl)cccc2Cl)n1 [Example 99, 2-(2-(2,6-dichlorophenyl)-1-(4′-(hydroxymethyl)-3′-(methyl-sulfonyl)biphenyl-4-yl)-1H-imidazol-4-yl)propan-2-ol] | < 1000 | – |
| CC(C)(O)c1cn(-c2ccc(-c3ccc(CO)c(S(C)(=O)=O)c3)cc2F)c(-c2ccccc2C(F)(F)F)n1 [Example 121] | < 1000 | – |
| CCS(=O)(=O)c1cccc(-c2ccc(-n3cc(C(C)(C)O)nc3Cc3cccc(Cl)c3Cl)c(Cl)c2)c1 [Example 26, 2-(1-(3-chloro-3′-(ethyl-sulfonyl)biphenyl-4-yl)-2-(2,3-dichlorobenzyl)-1H-imidazol-4-yl)propan-2-ol] | – | < 1000 |
| CC(C)(O)c1cn(-c2ccc(-c3ccc4c(c3)S(=O)(=O)CC4O)cc2Cl)c(-c2c(F)cccc2Cl)n1 (stereo not shown) [Example 469, 6-{3-chloro-4-[2-(2-chloro-6-fluorophenyl)-4-(1-hydroxy-1-methylethyl)-1H-imidazol-1-yl]phenyl}-2,3-dihydro-1-benzo-thiophene-3-ol 1,1-dioxide] | 1000 to 10000 | – |
| CCOC(=O)c1cn(-c2ccc(Br)cc2)c(-c2ccccc2C(F)(F)F)n1 [Example 366, ethyl 1-(4-bromophenyl)-2-[2-(trifluoromethyl)phenyl]-1H-imidazole-4-carboxylate] | 1000 to 10000 | – |
| CCS(=O)(=O)c1cccc(-c2ccc(-n3cc(C(C)(C)O)nc3CCc3ccccc3Cl)cc2)c1 [Example 28, 2-(2-(2-chlorophenethyl)-1-(3′-(ethylsulfonyl)biphenyl-4-yl)-1H-imidazol-4-yl)propan-2-ol] | – | < 1000 |
| NS(=O)(=O)c1cccc(-c2ccc(-n3cc(C(F)(F)F)nc3-c3ccccc3C(F)(F)F)cc2)c1 [Example 365, 4′-{4-(trifluoromethyl)-2-[2-(trifluoromethyl)phenyl]-1H-imidazol-1-yl}biphenyl-3-sulfonamide] | < 1000 | – |
| Cc1cc(-c2cccc(S(C)(=O)=O)c2)ccc1-n1cc(C(=O)NCC(F)(F)F)nc1-c1c(Cl)cccc1Cl [Example 85, 2-(2,6-dichlorophenyl)-1-(3-methyl-3′-(methylsulfonyl)biphenyl-4-yl)-N-(2,2,2-trifluoroethyl)-1H-imidazole-4-carboxamide] | < 1000 | – |
| CC(C)(O)c1cn(-c2ccc(-c3ccc(CO)c(S(C)(=O)=O)c3)cc2)c(-c2c(F)cccc2F)n1 [Example 103, 2-(2-(2,6-difluorophenyl)-1-(4′-(hydroxymethyl)-3′-(methyl-sulfonyl)biphenyl-4-yl)-1H-imidazol-4-yl)propan-2-ol] | 1000 to 10000 | – |
| CC(C)c1cccc(-c2ccc(-n3cc(C(C)(C)O)nc3-c3ccccc3Cl)cc2)c1 [Example 388] | 1000 to 10000 | – |

The next lines start with results.

| IC50 or EC50 (potency, activation or inhibition) [nM] | Compound | EC50 [nM] |
| --- | --- | --- |
| < 1000 | Cc1cc(-c2cccc(S(C)(=O)=O)c2)ccc1-n1cc(C(C)(C)O)nc1-c1ccccc1C(C)C [Example 195, 2-(2-(2-isopropylphenyl)-1-(3-methyl-3′-(methylsulfonyl)biphenyl-4-yl)-1H-imidazol-4-yl)propan-2-ol] | – |
| < 1000 | CCS(=O)(=O)c1cccc(-c2ccc(-n3cc(C(C)(C)O)nc3C(C)(C)c3cccc(Cl)c3Cl)c(Cl)c2)c1 [Example 452, 2-(1-(3-chloro-3′-(ethyl-sulfonyl)biphenyl-4-yl)-2-(2-(2,3-dichlorophenyl)propan-2-yl)-1H-imidazol-4-yl)propan-2-ol] | – |
| < 1000 | CC(C)(CO)NC(=O)c1cn(-c2ccc(-c3cccc(S(C)(=O)=O)c3)cc2Cl)c(-c2c(Cl)cccc2Cl)n1 [Example 463, 1-(3-chloro-3′-(methylsulfonyl)biphenyl-4-yl)-2-(2,6-dichlorophenyl)-N-(1-hydroxy-2-methylpropan-2-yl)-1H-imidazole-4-carboxamide] | – |
| < 1000 | Cc1cc(-c2cccc(S(C)(=O)=O)c2)ccc1-n1cc(C(C)(C)O)nc1-c1c(C)cccc1Cl [Example 191, 2-(2-(2-chloro-6-methylphenyl)-1-(3-methyl-3′-(methylsulfonyl)biphenyl-4-yl)-1H-imidazol-4-yl)propan-2-ol] | – |
| < 1000 | CCS(=O)(=O)c1cccc(-c2ccc(-c3nc(C(C)(C)O)cn3-c3c(C)cccc3C(C)C)c(C)c2)c1 [Example 60, 2-(2-(3′-(ethylsulfonyl)-3-methyl-biphenyl-4-yl)-1-(2-isopropyl-6-methylphenyl)-1H-imidazol-4-yl)propan-2-ol] | – |
| < 1000 | CCS(=O)(=O)c1cccc(-c2ccc(-n3cc(C(C)(C)O)nc3-c3cccc(Cl)c3C)c(C)c2)c1 [Example 190, 2-(2-(3-chloro-2-methylphenyl)-1-(3′-(ethylsulfonyl)-3-methylbiphenyl-4-yl)-1H-imidazol-4-yl)propan-2-ol] | – |
| < 1000 | CC(C)(O)c1cn(-c2ccc(-c3cc(S(C)(=O)=O)ccc3Cl)cc2Cl)c(-c2c(Cl)cccc2Cl)n1 [Example 467, 2-(1-(2′,3-dichloro-5′-(methyl-sulfonyl)biphenyl-4-yl)-2-(2,6-dichlorophenyl)-1H-imidazol-4-yl)propan-2-ol] | – |
| < 1000 | CC(C)(O)c1cn(-c2c(Cl)cccc2Cl)c(-c2ccc(-c3cccc(S(C)(=O)=O)c3)cc2Cl)n1 [Example 65, 2-(2-(3-chloro-3′-(methyl-sulfonyl)biphenyl-4-yl)-1-(2,6-dichlorophenyl)-1H-imidazol-4-yl)propan-2-ol] | – |
| < 1000 | CC(C)(O)c1cn(-c2ccc(-c3cccc(S(C)(=O)=O)c3)cc2Cl)c(C(C)(C)c2cccc(Cl)c2Cl)n1 [Example 451, 2-(1-(3-chloro-3′-(methyl-sulfonyl)biphenyl-4-yl)-2-(2-(2,3-dichlorophenyl)propan-2-yl)-1H-imidazol-4-yl)propan-2-ol] | – |
| < 1000 | CCS(=O)(=O)c1cccc(-c2ccc(-c3nc(C(C)(C)O)cn3-c3c(Cl)cccc3Cl)c(Cl)c2)c1 [Example 66, 2-(2-(3-chloro-3′-(ethyl-sulfonyl)biphenyl-4-yl)-1-(2,6-dichlorophenyl)-1H-imidazol-4-yl)propan-2-ol] | – |
| 1000 to 10000 | CC(C)(O)c1cn(-c2ccc(-c3cccc(S(C)(=O)=O)c3)cc2)c(-c2c(F)cccc2Cl)n1 [Example 416, 2-{2-(2-chloro-6-fluorophenyl)-1-[3′-(methylsulfonyl)biphenyl-4-yl]-1H-imidazol-4-yl}propan-2-ol] | – |
| < 1000 | CCC(O)(CC)c1cn(-c2ccc(-c3cccc(S(C)(=O)=O)c3)cc2)c(-c2cccc(Cl)c2Cl)n1 [Example 72, 3-(2-(2,3-dichlorophenyl)-1-(3′-(methylsulfonyl)biphenyl-4-yl)-1H-imidazol-4-yl)pentan-3-ol] | – |
